Reference: ChEMBL document CHEMBL1201862, “PubChem BioAssay data set” (2004)
Active and inactive are the calls of the source.

Legend:
Cytochrome P450 1A2 = target: T1, Cytochrome P450 1A2 (Homo sapiens, UniProt P05177);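 also: PubChem cytochrome P450 panel assay, CYP1A2 panel member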
T1 sequence (P05177 whole entry): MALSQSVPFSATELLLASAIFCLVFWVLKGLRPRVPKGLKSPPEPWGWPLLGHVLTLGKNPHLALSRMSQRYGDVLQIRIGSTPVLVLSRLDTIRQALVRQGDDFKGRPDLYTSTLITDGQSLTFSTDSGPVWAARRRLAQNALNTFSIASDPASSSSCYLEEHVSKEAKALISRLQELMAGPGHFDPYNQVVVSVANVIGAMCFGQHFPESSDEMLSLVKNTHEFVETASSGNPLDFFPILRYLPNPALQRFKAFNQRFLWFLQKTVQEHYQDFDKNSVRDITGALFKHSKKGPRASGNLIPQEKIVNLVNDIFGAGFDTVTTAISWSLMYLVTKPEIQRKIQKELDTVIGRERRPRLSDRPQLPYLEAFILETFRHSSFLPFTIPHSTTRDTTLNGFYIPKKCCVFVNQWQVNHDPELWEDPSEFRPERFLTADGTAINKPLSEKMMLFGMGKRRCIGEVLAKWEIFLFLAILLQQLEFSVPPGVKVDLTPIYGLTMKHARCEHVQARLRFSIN

Cytochrome P450 2D6 = Cytochrome P450 2D6 (Homo sapiens, UniProt P10635);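 also: CYP2D6 member of a cytochrome P450 panel assay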
[1] = target: T2, Polyadenylate-binding protein 1 (Homo sapiens, UniProt P11940); assay: MLLE binding blockers, Cy5 peptide tracer – biochemical, fluorescence polarization, Cy5-PAM2 peptide, secondary, miRNA deadenylation inhibitor project, dose response (AID 602260); assay type: functional; details: read-out: IC50_Mean
[2] = target: T3, Ubiquitin-conjugating enzyme E2 N (Homo sapiens, UniProt P61088); assay type: functional;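 also: Dose-response confirmation in a TR-FRET assay detecting UBC13-driven polyubiquitin chain formation, inhibition measured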
T3 sequence (P61088 whole entry): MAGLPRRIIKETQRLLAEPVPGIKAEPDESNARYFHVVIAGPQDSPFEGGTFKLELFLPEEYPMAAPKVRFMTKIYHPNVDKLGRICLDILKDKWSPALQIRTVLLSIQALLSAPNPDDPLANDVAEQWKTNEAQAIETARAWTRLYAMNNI

Streptokinase A = target: T4, Streptokinase A (Streptococcus pyogenes serotype M1, UniProt P10520); assay: viability-normalized secreted streptokinase activity reduction – plasminogen activation absorbance, OD405, dose response (AID 1914); assay type: functional, Streptococcus pyogenes M1 GAS;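 also: secreted streptokinase activity via plasminogen activation per viability signal from cell pellet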
T4 sequence (P10520 whole entry): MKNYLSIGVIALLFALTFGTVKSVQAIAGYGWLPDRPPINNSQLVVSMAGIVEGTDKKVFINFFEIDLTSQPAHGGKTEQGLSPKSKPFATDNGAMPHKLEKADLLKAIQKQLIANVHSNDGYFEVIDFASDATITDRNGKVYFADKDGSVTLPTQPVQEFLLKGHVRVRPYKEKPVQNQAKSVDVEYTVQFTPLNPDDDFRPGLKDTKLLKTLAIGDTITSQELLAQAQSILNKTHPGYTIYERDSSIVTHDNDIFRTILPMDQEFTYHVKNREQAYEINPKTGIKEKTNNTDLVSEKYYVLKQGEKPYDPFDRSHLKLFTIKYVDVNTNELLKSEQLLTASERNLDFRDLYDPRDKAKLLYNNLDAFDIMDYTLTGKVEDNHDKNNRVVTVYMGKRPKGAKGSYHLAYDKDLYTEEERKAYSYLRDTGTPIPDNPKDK

Streptococcus = assay: GAS UMAA2166 growth inhibition – luminescence, BacTiterGlo, counter-screen for streptokinase expression inhibitor project, dose response (AID 1915); assay type: functional, organism-based;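 also: potency for reduction of bacterial viability or growth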
HEK293 [3] = assay: EBV LMP1 TES2 canonical NF-kB signalling blockers – cell-based, HEK293, luciferase, cherry-pick, dose response (AID 588343); assay type: functional; details: Homo sapiens
[4] = tested on: Streptococcus sp. 'group A'; assay: Streptococcus pyogenes SK(-)GAS viability under kanamycin – luminescence, BacTiterGlo, confirmation, counter-screen for streptokinase expression inhibitor project, dose response (AID 1900); assay type: functional, organism-based
[5] = target: T2, Polyadenylate-binding protein 1; assay: MLLE domain peptide-binding blockers, IC50 – biochemical, fluorescence polarization, FITC-PAM2 peptide, dose response (AID 602259); assay type: functional; details: read-out: IC50_Mean
[6] = target: Intestinal-type alkaline phosphatase (Mus musculus, UniProt P24822); assay: PubChem AID 488785; assay type: functional
[7] = target: Intestinal-type alkaline phosphatase (Homo sapiens, UniProt P09923); assay: inhibition of human intestinal alkaline phosphatase – biochemical, dose response (AID 488876); assay type: functional
[8] = target: T5, Alkaline phosphatase, tissue-nonspecific isozyme (Homo sapiens, UniProt P05186); assay: TNAP enzyme inhibition by screening hits, dose response, selectivity assay for mouse IAP inhibitor project, biochemical, human TNAP, uHTS hits (AID 488906); assay type: functional
T5 sequence (P05186 whole entry): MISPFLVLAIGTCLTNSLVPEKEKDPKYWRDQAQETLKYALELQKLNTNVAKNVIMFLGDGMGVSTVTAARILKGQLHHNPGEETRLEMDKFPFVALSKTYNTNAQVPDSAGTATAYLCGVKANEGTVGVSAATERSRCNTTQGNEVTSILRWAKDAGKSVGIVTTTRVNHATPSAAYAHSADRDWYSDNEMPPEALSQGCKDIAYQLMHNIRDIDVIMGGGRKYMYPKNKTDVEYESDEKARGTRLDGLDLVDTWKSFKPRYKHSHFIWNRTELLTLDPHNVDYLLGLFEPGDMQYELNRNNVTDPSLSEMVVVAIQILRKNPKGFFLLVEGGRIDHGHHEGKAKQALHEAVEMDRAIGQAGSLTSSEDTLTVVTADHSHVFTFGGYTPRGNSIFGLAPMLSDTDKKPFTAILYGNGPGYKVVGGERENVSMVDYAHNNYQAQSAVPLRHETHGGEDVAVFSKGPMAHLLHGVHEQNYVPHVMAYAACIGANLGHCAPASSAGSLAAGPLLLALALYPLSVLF

Vero [9] = assay: viability of Vero cells under compound – cytotoxicity control for flavivirus capping enzyme inhibitors (AID 588742); assay type: functional; details: Chlorocebus sabaeus
[10] = microbe, parasite or virus in culture; assay type: functional; details: Mycobacterium tuberculosis
[11] = viability loss of HMLE_sh_eGFP cells – cell-based, luminescence, counter-screen for HMLE_sh_ECad selective toxicity project, dose response (AID 463074); assay type: functional, Homo sapiens;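 also: HMLE human mammary epithelial cells expressing control shRNA against eGFP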
[12] = Luminescence Cell-Based Dose Retest to Confirm Inhibitors of Cancer Stem Cells. [Related pubchem assays (depositor defined):AID2717, AID2721]; assay type: functional; details: Homo sapiens
[13] = target: T6, Voltage-gated N-type calcium channel alpha-1B subunit/Amyloid beta A4 precursor protein-binding family A member 1 (Homo sapiens, UniProt Q00975+Q02410); assay type: protein assay
[14] = target: T6, Voltage-gated N-type calcium channel alpha-1B subunit/Amyloid beta A4 precursor protein-binding family A member 1; assay type: protein assay; remark: listed apart in the source
[15] = blockade of melanocortin 4 receptor signaling – cell-based, plate reader, cherry pick, counter-screen for LGR2 antagonist project, dose response (AID 743444); assay type: functional;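 also: transfected HEK 293 cells stimulated with alpha-MSH peptide; potency of inhibitors of the alpha-MSH evoked signal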
[16] = alpha-synuclein stem-loop luciferase translation blockers – H4 neuroglioma cells, luminescence, confirmation (AID 1988); assay type: functional, cell-based
[17] = blockers of bursicon-stimulated LGR2 cAMP reporter – cell-based, HEK293, CRE-luciferase reporter, cherry pick, set 2, dose response (AID 743343); assay type: functional;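 also: transfected cells were stimulated with diluted bursicon conditioned medium after compound addition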
[18] = A549 cell cytotoxicity, dose response, cytotoxicity control, plate reader, cherry-pick, antagonist series (AID 743412); assay type: functional, cell-based
[19] = viability loss in HEK293 cells – cell-based, plate reader, cherry-picked samples, cytotoxicity control, dose response (AID 743446); assay type: functional
[20] = Luminescence Cell-Based Dose Response HTS to Identify Inhibitors of 5'UTR Stem-Loop Driven Prion Protein mRNA Translation in H4 Neuroglioblastoma Cells. [Related pubchem assays: 1827 (Project Summary), 1813 (Primary HTS)]; assay type: functional
[21] = luciferase reporter signal suppression in cells – H4 neuroglioma cells, luminescence, dose response (AID 1990); assay type: functional, cell-based
Escherichia coli = assay: microbe, parasite or virus in culture
HEK293 [22] = assay: cells; assay type: functional, cell-based; details: Homo sapiens
[23] = target: T7, Nuclear receptor subfamily 0 group B member 1 (Homo sapiens, UniProt P51843); assay: Luminescence-based cell-based high throughput dose response assay for inhibitors of the orphan nuclear receptor subfamily 0, group B, member 1 (DAX1; NR0B1). [Related pubchem assays (depositor defined):AID504766, AID504790]; assay type: functional
T7 sequence (P51843 whole entry): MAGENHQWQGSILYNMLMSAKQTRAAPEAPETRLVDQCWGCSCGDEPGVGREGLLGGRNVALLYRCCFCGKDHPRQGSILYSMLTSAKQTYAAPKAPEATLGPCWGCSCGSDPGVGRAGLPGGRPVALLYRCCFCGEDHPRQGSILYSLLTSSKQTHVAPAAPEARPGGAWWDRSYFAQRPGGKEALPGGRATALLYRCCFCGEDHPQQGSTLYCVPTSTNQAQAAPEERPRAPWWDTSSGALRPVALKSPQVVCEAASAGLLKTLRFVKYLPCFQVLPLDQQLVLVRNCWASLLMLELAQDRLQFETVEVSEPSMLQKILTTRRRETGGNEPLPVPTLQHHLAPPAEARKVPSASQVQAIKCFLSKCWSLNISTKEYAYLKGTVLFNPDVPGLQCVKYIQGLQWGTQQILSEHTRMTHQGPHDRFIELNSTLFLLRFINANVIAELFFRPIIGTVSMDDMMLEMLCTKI

Cytochrome P450 2C19 = Cytochrome P450 2C19 (Homo sapiens, UniProt P33261); assay: Cytochrome panel assay with activity outcomes. Panel member name: p450-cyp2c19 Compounds with AC50 equal or less than 10 uM are considered active; assay type: functional
Vero [24] = assay: cells; assay type: functional, cell-based; details: Chlorocebus sabaeus
[25] = NIH3T3 cell viability loss – ATP luminescence, mouse fibroblasts, counter-screen, dose response (AID 2010); assay type: functional, cell-based;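 also: cells exposed to compound for about 90 hours before reading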
cells = assay type: functional
[26] = Trypanosoma cruzi growth suppression in host cells – NIH3T3 host cells, beta-gal luminescence, confirmation (AID 2044); assay type: functional, cell-based;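 also: intracellular parasites grown in NIH/3T3 mouse fibroblasts as host cells; luminescent beta-galactosidase reporter signal from transgenic T. cruzi replicating inside host cells; inhibitors lower the luminescence signal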

T6 sequence (Q00975 whole entry): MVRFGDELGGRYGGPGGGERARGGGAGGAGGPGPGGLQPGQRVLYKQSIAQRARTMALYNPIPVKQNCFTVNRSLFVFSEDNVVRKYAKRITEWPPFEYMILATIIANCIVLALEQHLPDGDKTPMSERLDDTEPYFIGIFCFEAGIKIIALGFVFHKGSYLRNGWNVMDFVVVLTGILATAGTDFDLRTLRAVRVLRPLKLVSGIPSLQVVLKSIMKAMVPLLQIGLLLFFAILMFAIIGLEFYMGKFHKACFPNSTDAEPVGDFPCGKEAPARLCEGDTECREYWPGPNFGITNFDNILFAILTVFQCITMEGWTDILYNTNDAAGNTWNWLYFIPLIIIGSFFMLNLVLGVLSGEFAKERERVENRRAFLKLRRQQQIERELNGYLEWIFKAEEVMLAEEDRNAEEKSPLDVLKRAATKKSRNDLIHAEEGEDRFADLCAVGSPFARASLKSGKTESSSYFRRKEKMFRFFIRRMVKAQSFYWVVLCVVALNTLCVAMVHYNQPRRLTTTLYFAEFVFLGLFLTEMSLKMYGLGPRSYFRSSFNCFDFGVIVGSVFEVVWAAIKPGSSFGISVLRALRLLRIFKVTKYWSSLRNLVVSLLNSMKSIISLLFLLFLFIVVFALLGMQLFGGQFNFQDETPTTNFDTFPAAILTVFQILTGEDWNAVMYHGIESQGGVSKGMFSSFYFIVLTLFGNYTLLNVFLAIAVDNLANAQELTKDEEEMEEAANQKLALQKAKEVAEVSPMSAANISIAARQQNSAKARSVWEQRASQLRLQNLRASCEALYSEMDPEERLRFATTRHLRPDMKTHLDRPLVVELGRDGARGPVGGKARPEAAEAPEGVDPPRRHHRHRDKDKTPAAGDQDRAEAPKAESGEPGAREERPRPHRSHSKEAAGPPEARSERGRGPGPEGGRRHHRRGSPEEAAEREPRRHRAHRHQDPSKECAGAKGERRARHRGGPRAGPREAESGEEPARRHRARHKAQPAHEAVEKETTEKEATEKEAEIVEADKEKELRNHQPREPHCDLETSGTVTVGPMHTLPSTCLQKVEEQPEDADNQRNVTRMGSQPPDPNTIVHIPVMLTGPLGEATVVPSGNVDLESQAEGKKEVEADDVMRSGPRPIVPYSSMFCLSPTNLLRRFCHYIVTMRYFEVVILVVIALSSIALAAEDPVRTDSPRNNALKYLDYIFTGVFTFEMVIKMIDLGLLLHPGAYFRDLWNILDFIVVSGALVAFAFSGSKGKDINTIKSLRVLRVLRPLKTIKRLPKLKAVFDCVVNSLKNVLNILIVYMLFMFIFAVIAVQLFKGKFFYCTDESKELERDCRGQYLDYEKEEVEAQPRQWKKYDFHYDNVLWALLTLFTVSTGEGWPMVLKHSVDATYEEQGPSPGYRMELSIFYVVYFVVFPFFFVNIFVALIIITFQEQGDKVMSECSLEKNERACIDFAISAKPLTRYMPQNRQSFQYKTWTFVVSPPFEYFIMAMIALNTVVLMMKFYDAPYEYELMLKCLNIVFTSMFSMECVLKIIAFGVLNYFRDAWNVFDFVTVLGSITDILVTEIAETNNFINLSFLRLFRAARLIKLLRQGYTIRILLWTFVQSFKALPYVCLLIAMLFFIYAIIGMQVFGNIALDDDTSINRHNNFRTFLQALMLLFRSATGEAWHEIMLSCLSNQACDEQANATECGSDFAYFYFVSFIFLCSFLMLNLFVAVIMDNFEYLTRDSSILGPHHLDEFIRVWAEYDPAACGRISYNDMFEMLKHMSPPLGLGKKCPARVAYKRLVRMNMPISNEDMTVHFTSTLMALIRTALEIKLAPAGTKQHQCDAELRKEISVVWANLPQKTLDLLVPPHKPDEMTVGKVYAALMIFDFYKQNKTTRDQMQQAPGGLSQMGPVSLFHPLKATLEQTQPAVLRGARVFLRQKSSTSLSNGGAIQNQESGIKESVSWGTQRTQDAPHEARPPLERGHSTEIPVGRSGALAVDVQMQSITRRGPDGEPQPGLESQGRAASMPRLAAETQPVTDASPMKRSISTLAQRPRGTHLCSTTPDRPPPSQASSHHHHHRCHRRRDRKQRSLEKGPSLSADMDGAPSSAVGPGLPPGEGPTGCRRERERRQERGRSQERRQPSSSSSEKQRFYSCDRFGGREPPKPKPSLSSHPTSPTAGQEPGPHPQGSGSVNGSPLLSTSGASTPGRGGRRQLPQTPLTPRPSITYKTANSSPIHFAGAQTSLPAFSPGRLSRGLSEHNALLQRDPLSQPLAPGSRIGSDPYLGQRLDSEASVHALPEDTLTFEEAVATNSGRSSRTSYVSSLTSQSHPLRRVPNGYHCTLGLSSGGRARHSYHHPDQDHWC
T6 sequence (Q02410 whole entry): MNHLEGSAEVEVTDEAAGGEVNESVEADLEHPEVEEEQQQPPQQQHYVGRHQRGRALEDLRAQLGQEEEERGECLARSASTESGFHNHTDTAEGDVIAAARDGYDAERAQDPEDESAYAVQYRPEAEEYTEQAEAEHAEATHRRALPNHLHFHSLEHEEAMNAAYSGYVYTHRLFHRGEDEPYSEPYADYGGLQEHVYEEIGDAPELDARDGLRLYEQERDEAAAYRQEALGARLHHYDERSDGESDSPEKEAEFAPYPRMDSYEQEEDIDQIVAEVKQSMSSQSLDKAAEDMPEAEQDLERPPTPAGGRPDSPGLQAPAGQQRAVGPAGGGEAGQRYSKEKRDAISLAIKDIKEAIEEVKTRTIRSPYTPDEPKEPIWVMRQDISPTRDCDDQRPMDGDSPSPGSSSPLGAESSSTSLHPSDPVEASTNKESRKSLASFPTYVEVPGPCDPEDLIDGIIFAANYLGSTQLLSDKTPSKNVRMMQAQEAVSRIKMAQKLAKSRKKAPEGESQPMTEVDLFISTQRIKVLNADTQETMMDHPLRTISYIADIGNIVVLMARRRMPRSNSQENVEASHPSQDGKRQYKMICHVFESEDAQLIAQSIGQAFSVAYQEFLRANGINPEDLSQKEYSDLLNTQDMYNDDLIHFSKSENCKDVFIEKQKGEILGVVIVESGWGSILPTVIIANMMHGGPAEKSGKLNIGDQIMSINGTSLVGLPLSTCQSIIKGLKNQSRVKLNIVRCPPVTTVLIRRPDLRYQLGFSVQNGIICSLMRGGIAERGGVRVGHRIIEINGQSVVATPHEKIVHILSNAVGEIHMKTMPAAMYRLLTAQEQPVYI
Sequence of Cytochrome P450 2D6 (P10635 whole entry): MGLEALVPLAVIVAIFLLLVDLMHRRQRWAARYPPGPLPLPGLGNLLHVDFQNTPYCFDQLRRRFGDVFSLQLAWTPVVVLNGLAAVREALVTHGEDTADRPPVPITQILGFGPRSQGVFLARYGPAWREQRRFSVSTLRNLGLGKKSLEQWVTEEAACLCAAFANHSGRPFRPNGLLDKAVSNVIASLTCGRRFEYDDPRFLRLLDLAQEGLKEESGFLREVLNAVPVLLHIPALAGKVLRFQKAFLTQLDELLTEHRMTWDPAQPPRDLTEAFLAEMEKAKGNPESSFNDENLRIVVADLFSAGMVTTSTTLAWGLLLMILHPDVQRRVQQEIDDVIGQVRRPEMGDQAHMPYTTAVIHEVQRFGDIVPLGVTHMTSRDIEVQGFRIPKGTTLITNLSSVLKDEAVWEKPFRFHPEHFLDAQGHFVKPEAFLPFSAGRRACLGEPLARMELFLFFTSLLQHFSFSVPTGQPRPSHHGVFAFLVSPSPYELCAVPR
Sequence of Intestinal-type alkaline phosphatase (Homo sapiens, UniProt P09923) (P09923 whole entry): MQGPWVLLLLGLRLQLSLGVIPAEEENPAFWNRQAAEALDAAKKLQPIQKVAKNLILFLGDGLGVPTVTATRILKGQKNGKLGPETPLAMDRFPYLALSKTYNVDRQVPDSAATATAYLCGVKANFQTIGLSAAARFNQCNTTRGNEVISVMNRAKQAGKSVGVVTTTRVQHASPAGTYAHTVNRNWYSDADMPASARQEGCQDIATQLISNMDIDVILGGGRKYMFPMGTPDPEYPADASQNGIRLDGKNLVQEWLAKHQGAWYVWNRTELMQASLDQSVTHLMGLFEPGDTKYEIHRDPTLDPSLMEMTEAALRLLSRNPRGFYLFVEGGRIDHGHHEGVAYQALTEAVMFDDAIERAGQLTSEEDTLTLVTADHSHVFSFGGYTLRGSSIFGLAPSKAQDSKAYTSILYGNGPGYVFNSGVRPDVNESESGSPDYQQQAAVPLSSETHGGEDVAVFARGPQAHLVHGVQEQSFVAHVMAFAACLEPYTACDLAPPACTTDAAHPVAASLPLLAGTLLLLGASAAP
T2 sequence (P11940 whole entry): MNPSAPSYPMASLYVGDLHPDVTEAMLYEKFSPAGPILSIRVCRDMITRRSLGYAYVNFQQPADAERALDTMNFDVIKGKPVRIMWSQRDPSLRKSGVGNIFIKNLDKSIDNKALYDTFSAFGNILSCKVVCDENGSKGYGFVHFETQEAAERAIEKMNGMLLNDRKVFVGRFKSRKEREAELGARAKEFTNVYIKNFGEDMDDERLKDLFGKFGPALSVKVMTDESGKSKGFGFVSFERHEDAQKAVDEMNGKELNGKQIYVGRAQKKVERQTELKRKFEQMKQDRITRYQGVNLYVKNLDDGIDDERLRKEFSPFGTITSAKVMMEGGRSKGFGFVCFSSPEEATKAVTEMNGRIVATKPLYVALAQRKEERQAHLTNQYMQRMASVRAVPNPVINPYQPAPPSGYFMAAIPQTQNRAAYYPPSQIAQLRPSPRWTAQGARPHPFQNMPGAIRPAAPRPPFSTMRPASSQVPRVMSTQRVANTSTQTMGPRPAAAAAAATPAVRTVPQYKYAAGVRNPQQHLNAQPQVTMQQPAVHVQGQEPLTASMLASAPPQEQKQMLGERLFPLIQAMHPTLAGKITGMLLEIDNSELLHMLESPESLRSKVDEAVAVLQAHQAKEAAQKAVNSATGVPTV

COc1ccc2c(c1)c(CC(=O)O)c(C)n2C(=O)c1ccccc1
AC50 (Cytochrome P450 1A2): 12.6 µM (inconclusive) | AC50 (Cytochrome P450 2D6): inconclusive

CCOc1ccc(NC(=S)N=Nc2c(O)[nH]c3ccccc23)cc1
IC50 [1]: > 66 µM (inactive) | IC50 [2]: > 20 µM (inactive) | EC50 (Streptokinase A): > 150 µM (not active) | EC50 (Streptococcus): 5.53 µM (active) | AC50 (HEK293 [3]): 2.7 µM (active) | EC50 [4]: 0.465 µM (active) | IC50 [5]: > 66 µM (inactive)

FC(F)Oc1ccc(NC(S)=NC2CCSc3ccccc32)cc1 (configuration not stated)
IC50 [6]: 5.64 µM (active) | IC50 [7]: > 100 µM (inactive) | IC50 [8]: > 100 µM (inactive)

c1ccc(-n2cnc3cc(NCc4cccs4)ccc32)cc1
CC50 (Vero [9]): > 40 µM (active) | CC50 [10]: > 40 µM (active)

COc1cccc(S(=O)(=O)NCc2ccc(C(=O)Nc3ccc(Cl)cc3)cc2)c1
AC50 [11]: 102 µM (active) | AC50 [12]: 35 µM (active)

Cc1ccc(C)c(NS(=O)(=O)c2ccc3[nH]c(=O)oc3c2)c1
IC50 [6]: 15.7 µM (active) | IC50 [7]: > 100 µM (inactive) | IC50 [8]: > 100 µM (inactive)

CCOC(=O)c1cc(-c2ccc(F)cc2)nc2c1c(=O)[nH]c(=O)n2Cc1ccccc1
IC50 [13]: > 56.8 µM (not active) | IC50 [14]: > 50 µM (inactive)

Cc1ccnc(NC(=O)CCC(=O)c2cccs2)c1
AC50 [15]: 2.17 µM (active) | EC50 [16]: 2.36 µM (active) | AC50 [17]: 2.38 µM (active) | AC50 [18]: > 52 µM (inactive) | AC50 [19]: 34.9 µM (active) | EC50 [20]: 2.97 µM (active) | EC50 [21]: 4.73 µM (inconclusive) | AC50 (HEK293 [3]): 3 µM (active)

CCOC(=O)c1sc(-c2ccccc2)cc1NC(=O)Nc1ccc([N+](=O)[O-])cc1
AC50 (Escherichia coli): 35 µM (active)

C=CCN(CC=C)S(=O)(=O)c1ccc(NC(=S)NC(=O)C2CC2)cc1
EC50 (Streptokinase A): > 150 µM (not active) | AC50 (Escherichia coli): 29.4 µM (active) | EC50 (Streptococcus): > 150 µM (not active) | EC50 [4]: > 150 µM (not active)

O=C(CSc1ccc2ccccc2c1Br)Nc1cccc(S(=O)(=O)NC2=NCCCCC2)c1
AC50 [11]: 48 µM (active) | AC50 [12]: 1.92 µM (active)

COc1ccc(N2CC(C(=O)Nc3cc(C)on3)CC2=O)cc1 (configuration not stated)
AC50 (Cytochrome P450 2D6): inconclusive

Cc1cccnc1NC(=S)Nc1ccc(F)cc1F
IC50 [13]: 11.5 µM (active) | IC50 [14]: > 50 µM (inactive)

O=S(=O)(NCC1NCCc2ccccc21)c1ccccc1 (configuration not stated)
IC50 (HEK293 [22]): > 67.6 µM (inactive) | IC50 [23]: > 67.6 µM (inactive)

CN(C)CCNC(=O)C1CCCNC1=O (configuration not stated)
AC50 (Cytochrome P450 2C19): inconclusive | AC50 (Cytochrome P450 2D6): inconclusive

Cc1cccc(CN2CCN(C(S)=Nc3ccccc3)CC2)c1
IC50 (HEK293 [22]): > 67.6 µM (inactive) | IC50 [23]: > 67.6 µM (inactive)

CCOC(=O)C1(Cc2cccc(F)c2)CCN(C2CCOCC2)CC1
AC50 (Escherichia coli): 35.1 µM (active)

CCCn1cnc2c(SCc3ccccc3Cl)nc(N)nc21
IC50 (Vero [24]): > 25 µM (active)

C=CCn1/c(=N/C(=O)c2ccc(S(=O)(=O)N3CCCc4ccccc43)cc2)sc2cc(S(N)(=O)=O)ccc21
AC50 [11]: 84.8 µM (active) | AC50 [12]: 2.01 µM (active)

Cc1ccc(N/N=C2\CS(=O)(=O)N(C)c3ccsc32)cc1
EC50 [25]: > 60 µM (not active) | EC50 (Streptokinase A): 4.04 µM (active) | IC50 (cells): 21.2 µM (active) | IC50 (HEK293 [22]): > 67.5 µM (inactive) | IC50 [23]: > 67.5 µM (inactive) | EC50 (Streptococcus): 11.3 µM (active) | EC50 [26]: 2.21 µM (active) | EC50 [4]: 1.25 µM (active)
